Source: US5929236A, “2-substituted morpholine and thiomorpholine derivatives as GABA-B antagonists” (Schering Corporation, priority 1995, dated 1999)

Experiments:
[1] = system: seizure in rats induced by GBL; experiment: Prevention of seizure in rats induced by GBL; assay type: in vivo, rat; conditions: 100 mg/kg GBL (ip)
Description: (§1) Animal Models for Absence Seizures
(§2) A. Snead, Eur. J. Pharmacol., 213, 343-349 (1992), teaches a pharmacological model for testing the effectiveness of GABAB antagonists in preventing seizures induced by intra-peritoneal (ip) administration of either γ-butyrolactone (GBL) or pentylenetetrazole (PTZ) to rats. The animal is treated with the test compound, then monitored after being subjected to a dose of either GBL or PTZ sufficient to induce seizures.

[2] = system: Respiratory Depressant Effect of Baclofen; experiment: Reversal of the Respiratory Depressant Effect of Baclofen via icv Administration; assay type: in vivo, guinea pig; conditions: 50 μg in 10 μl of vehicle, icv, 5 min before measurement of ventilation; mean ± SEM
Description: Animal Model for Respiratory Depression:
Place unanesthetized guinea pigs in a head-out plethysmograph and expose to a CO2 enriched gas mixture (10% CO2, 21% O2, 69% N2) for 10 min., (see Danko, et al., J. Pharm. Methods, 19, 165-173 (1988)). Plethysmograph pressure is detected with a transducer connected to a chart recorder. Minute ventilation is calculated as the product of tidal volume and respiratory frequency. The compound to be tested is administered orally, subcutaneously (sc), intraperitoneally (ip) or via an intracerebroventricular route (icv). Baclofen (3 mg/kg, sc) was given 30 min before exposure to the CO2 enriched gas. When given by the oral route, the compounds is administered 1, 3, 5 or 7 h before exposure to CO2 enriched gas. A 40 or 30 min. preteratment is used for the subcutaneous and intraperitoneal routes, respectively. The vehicle for oral, sc or ip administration is saline. For icv administration, single icv cannulae are placed in the lateral ventricle of anesthetized guinea pigs, (see McLeod, et al., Eur. J. Pharmacol., 209, 141-142 (1988)). The animals are allowed to recover approximately one week prior to use for ventilation experiments. The vehicle for icv administration is artificial cerebrospinal fluid (CSF).

[3] = system: seizure in lethargic (lh/lh) mice; experiment: Prevention of seizure in lethargic (lh/lh) mice; assay type: in vivo
From the text: B. Hosford, et al., Science, 257, 398-401 (Jul. 17, 1992), teaches a pharmacological model for testing the effectiveness of GABAB antagonists as anticonvulsants for the treatment of absence seizures by administering the compound to be tested to lethargic (lh/lh) mice, a mutant strain with spontaneous seizures.

[4] = biological target: prejunctional GABAB receptors (Cavia porcellus, UniProt A0A286X9P6); experiment: In Vitro Assay (guinea pig trachea, reversal of baclofen inhibition of EFS-induced contractions); assay type: cell-based, guinea pig (male Hartley); conditions: 30 μmol/L baclofen
Chain of prejunctional GABAB receptors (A0A286X9P6 30-844): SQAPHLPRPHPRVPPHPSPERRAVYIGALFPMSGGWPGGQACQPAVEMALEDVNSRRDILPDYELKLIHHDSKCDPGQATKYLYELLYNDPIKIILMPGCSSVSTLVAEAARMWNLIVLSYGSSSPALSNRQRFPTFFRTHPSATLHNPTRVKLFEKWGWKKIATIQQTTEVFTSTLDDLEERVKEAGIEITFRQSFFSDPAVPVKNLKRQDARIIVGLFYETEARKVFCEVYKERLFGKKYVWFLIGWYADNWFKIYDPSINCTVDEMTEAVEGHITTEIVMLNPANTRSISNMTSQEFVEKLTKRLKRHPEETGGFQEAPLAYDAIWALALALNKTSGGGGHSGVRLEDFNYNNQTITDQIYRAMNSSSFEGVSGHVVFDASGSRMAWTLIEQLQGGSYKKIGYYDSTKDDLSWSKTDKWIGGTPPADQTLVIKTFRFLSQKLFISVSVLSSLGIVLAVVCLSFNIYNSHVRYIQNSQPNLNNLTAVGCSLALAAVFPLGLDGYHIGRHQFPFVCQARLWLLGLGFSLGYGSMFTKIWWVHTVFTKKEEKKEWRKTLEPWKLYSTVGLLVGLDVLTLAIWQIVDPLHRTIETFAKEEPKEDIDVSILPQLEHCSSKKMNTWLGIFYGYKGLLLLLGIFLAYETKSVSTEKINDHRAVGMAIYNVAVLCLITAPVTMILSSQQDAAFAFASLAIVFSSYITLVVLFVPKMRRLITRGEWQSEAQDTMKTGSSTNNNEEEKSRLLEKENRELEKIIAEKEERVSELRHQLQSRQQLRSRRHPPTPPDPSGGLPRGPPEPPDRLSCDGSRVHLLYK
Chain of prejunctional GABAB receptors (H0V741 1-820 partner): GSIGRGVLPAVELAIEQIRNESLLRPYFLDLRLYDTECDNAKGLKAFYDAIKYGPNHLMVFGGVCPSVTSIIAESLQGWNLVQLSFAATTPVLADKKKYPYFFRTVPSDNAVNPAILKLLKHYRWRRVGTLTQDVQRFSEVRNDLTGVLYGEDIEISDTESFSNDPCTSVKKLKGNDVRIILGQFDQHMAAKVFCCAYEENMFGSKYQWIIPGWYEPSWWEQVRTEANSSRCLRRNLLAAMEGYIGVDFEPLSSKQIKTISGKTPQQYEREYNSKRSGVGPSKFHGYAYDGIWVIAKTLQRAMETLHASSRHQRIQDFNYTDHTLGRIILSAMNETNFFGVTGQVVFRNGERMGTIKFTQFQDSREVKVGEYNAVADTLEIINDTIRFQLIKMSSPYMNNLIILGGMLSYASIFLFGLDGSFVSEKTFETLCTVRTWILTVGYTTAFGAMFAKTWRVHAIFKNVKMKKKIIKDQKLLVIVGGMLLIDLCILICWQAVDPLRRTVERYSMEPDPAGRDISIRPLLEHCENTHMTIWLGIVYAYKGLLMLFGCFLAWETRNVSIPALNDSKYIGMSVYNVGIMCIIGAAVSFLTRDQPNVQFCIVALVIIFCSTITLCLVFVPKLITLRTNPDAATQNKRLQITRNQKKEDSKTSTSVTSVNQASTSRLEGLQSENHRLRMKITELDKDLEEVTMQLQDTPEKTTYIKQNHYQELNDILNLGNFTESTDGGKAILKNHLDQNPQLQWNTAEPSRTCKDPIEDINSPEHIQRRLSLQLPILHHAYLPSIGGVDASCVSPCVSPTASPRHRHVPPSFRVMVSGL
Description: Male Hartley guinea pigs (450-650 g) are sacrificed by stunning and the trachea removed proximal to the carina and cut into 5 mm segments. The segments are attached to isometric force displacement transducers (Model FT03: Grass Instruments) and suspended in 15 mL organ baths filled with low Ca^2+ (0.6 mmol/L) Tyrode's buffer solution (pH 7.4) supplemented with 5.6 mmol/L glucose, 30 μmol/L choline and 2 μmol/L indomethacin. The solution is bubbled with a mixture of 95% O2 +5% CO2 and maintained at 37° C. The tracheal segments are allowed to equilibrate for 90 minutes under a resting tension of 0.5 g.
Platinum electrodes are placed on either side of the trachea and electrical field stimulation (EFS) (20 V, 8 Hz, 0.5 ms pulse for 5 s) was generated each minute from an electrical stimulator (Model S-88: Grass Instruments) and delivered to the electrodes through a stimulus distributor (Buxco Electronics). The stimulation parameters are chosen as appropriate for producing cholinergic contractions of the trachea that are sensitive to the inhibitory effects of compounds acting at prejunctional GABAB receptors. Contractile responses were recorded on a polygraph (Harvard Apparatus). The compound to be tested is added to the bath 10 min. before addition of 30 μmol/L baclofen. The effect of baclofen treatment in the absence or in the presence of the compound to be tested is expressed as a percent inhibition of EFS-induced contractions.

[5] = system: seizure in rats induced by PTZ; experiment: Prevention of seizure in rats induced by PTZ; assay type: in vivo, rat; conditions: PTZ model
Description: as §1, §2

## CC1(C)COC(CC(=O)O)CN1 (single isomer, unassigned) [Example 6A]
[1]; 0.75 mg/kg, 20 min
  SWD duration: 970 s
[1]; 0.75 mg/kg, 40 min
  SWD duration: 1150 s
[1]; 0.75 mg/kg, 60 min
  SWD duration: 500 s
[1]; 0.75 mg/kg, 80 min
  SWD duration: 280 s
[1]; 0.75 mg/kg, 100 min
  SWD duration: 50 s
[1]; 0.75 mg/kg, 120 min
  SWD duration: 0 s
[1]; 1.5 mg/kg, 20 min
  SWD duration: 560 s
[1]; 1.5 mg/kg, 40 min
  SWD duration: 540 s
[1]; 1.5 mg/kg, 60 min
  SWD duration: 0 s
[1]; 1.5 mg/kg, 80 min
  SWD duration: 0 s
[1]; 1.5 mg/kg, 100 min
  SWD duration: 0 s
[1]; 1.5 mg/kg, 120 min
  SWD duration: 0 s
[1]; 3.0 mg/kg, 20 min
  SWD duration: 0 s
[1]; 3.0 mg/kg, 40 min
  SWD duration: 0 s
[1]; 3.0 mg/kg, 60 min
  SWD duration: 0 s
[1]; 3.0 mg/kg, 80 min
  SWD duration: 0 s
[1]; 3.0 mg/kg, 100 min
  SWD duration: 0 s
[1]; 3.0 mg/kg, 120 min
  SWD duration: 0 s
[2]
  % Inhibition: 99 ± 23%
[3]; 1.0 mg/kg ip
  Seizures (% vehicle) in 120 min.: 85%
[3]; 3.0 mg/kg ip
  Seizures (% vehicle) in 120 min.: 60%
[3]; 10 mg/kg ip
  Seizures (% vehicle) in 120 min.: 15%
[3]; 30 mg/kg ip
  Seizures (% vehicle) in 120 min.: 5%
[4]; 30 μM
  inhibition at 30 µM: 90%
[4]; guinea pig trachea
  IC30: 1100 nM
[4]; 100 μM
  In Vitro % inhibition: 94%
[5]; 0.18 mg/kg, 20 min
  SWD duration: 250 s
[5]; 0.18 mg/kg, 40 min
  SWD duration: 235 s
[5]; 0.18 mg/kg, 60 min
  SWD duration: 140 s
[5]; 0.18 mg/kg, 80 min
  SWD duration: 60 s
[5]; 0.18 mg/kg, 100 min
  SWD duration: 15 s
[5]; 0.18 mg/kg, 120 min
  SWD duration: 0 s
[5]; 0.375 mg/kg, 20 min
  SWD duration: 150 s
[5]; 0.375 mg/kg, 40 min
  SWD duration: 140 s
[5]; 0.375 mg/kg, 60 min
  SWD duration: 55 s
[5]; 0.375 mg/kg, 80 min
  SWD duration: 25 s
[5]; 0.375 mg/kg, 100 min
  SWD duration: 0 s
[5]; 0.375 mg/kg, 120 min
  SWD duration: 0 s
[5]; 0.75 mg/kg, 20 min
  SWD duration: 90 s
[5]; 0.75 mg/kg, 40 min
  SWD duration: 70 s
[5]; 0.75 mg/kg, 60 min
  SWD duration: 45 s
[5]; 0.75 mg/kg, 80 min
  SWD duration: 0 s
[5]; 0.75 mg/kg, 100 min
  SWD duration: 0 s
[5]; 0.75 mg/kg, 120 min
  SWD duration: 0 s
[5]; 1.5 mg/kg, 20 min
  SWD duration: 0 s
[5]; 1.5 mg/kg, 40 min
  SWD duration: 0 s
[5]; 1.5 mg/kg, 60 min
  SWD duration: 0 s
[5]; 1.5 mg/kg, 80 min
  SWD duration: 0 s
[5]; 1.5 mg/kg, 100 min
  SWD duration: 0 s
[5]; 1.5 mg/kg, 120 min
  SWD duration: 0 s
